The text below walks through data of ChEMBL document CHEMBL4266059, “Synthesis of Cyanoenone-Modified Diterpenoid Analogs as Novel Bmi-1-Mediated Antitumor Agents” (ACS Med Chem Lett, 2018).

Usually IC50 stands for the concentration needed to halve the response being measured. Read a high IC50 as lower potency.

Active and inactive are the calls of the source. The calls are words filed in the database; no cut-off is given here. Where only a bound is given, the exact number is not on record here.

Data set [1] has as its system HCT-116. As to the kind of experiment: Antiproliferative activity against human HCT116 cells after 72 hrs by SRB assay. It counts as functional, cell-based. The note with it: HCT-116, 72 h.
In data set [2] the test system is HT-29. Kind of data set: Antiproliferative activity against human HT-29 cells after 72 hrs by SRB assay. In kind it is functional, cell-based. To be noted: HT-29, 72 h. (In general: In SRB staining, fixed cells bind dye roughly in proportion to their protein.)
Data set [3] has as its system HCT-116. As to the kind of experiment: Inhibition of Bmi1 protein expression in human HCT116 cells after 8 hrs by Western blot analysis. In kind it is functional, cell-based. In general terms: In western blotting, separated proteins are transferred to a membrane and probed.
Data set [4] can be described thus: Selectivity index, ratio of IC50 for HAF to IC50 for human HT-29 cells. It counts as toxicity. The note with it: HAF cells versus HT-29 cells, read-out: Ratio IC50.
Data set [5] in a line: Selectivity index, ratio of IC50 for HAF to IC50 for human HCT116 cells. In kind it is toxicity. The note with it: HAF cells versus HCT116 cells, read-out: Ratio IC50.
Data set [6] can be described thus: Selectivity index, ratio of IC50 for HAF to IC50 for human HCT8 cells. In kind it is toxicity. To be noted: HAF cells versus HCT8 cells, read-out: Ratio IC50.
Data set [7] deals with HCT-8. As to the kind of experiment: Antiproliferative activity against human HCT8 cells after 72 hrs by SRB assay. It counts as functional, cell-based. The note with it: HCT-8, 72 h.
Data set [8] is described as follows: Antiproliferative activity against HAF after 72 hrs by SRB assay. More on the design: species or system Homo sapiens.
In data set [9] the test system is HCT-116. Kind of data set: Potency index, ratio of PTC-209 IC50 to compound IC50 for antiproliferative activity against human HCT116 cells. It counts as functional.

As to `COc1cc2c(cc1C(=O)NCC(=O)O)CC[C@H]1C(C)(C)C(=O)C(C#N)=C[C@]21C`, the IC50 in data set [1] was greater than 50000 nM.

Turning to `CC1(C)C(=O)C(C#N)=C[C@]2(C)c3cc(O)c(C(=O)Nc4ccc(OC(F)(F)F)cc4)cc3CC[C@@H]12`, the IC50 in [2] stood at 2380 nM; in [1] it was 2000 nM; in data set [7], 3060 nM; in data set [8], 13800 nM. For the same molecule, in data set [3], the inhibition result is “inactive”. For the same molecule, the selectivity ratio in [4], in data set [5] and in data set [6] was 4.5 to 6.9 each time.

Consider `C=CCOc1ccc(NC(=O)c2cc3c(cc2OC)[C@@]2(C)C=C(C#N)C(=O)C(C)(C)[C@@H]2CC3)cc1`, for which the IC50 in [1] is 560 nM.

Turning to `CCOc1ccc(NC(=O)c2cc3c(cc2OC)[C@@]2(C)C=C(C#N)C(=O)C(C)(C)[C@@H]2CC3)cc1`, the IC50 in [1] came out at 820 nM. The IC50 values of the last two molecules are within 1.5-fold of each other.

`COc1cc2c(cc1C(=O)O)CC[C@H]1C(C)(C)C(=O)C(C#N)=C[C@]21C` registered a half-maximal inhibitory concentration (IC50) in data set [1] greater than 50000 nM.

Regarding `COc1cc2c(cc1C(=O)Nc1ccc(C(C)=O)cc1)CC[C@H]1C(C)(C)C(=O)C(C#N)=C[C@]21C`, the inhibition result in data set [3] is “Active”. Besides, the half-maximal inhibitory concentration (IC50) in data set [1] was 2100 nM.

For `COc1cc2c(cc1C(=O)Nc1ccc(OC(F)(F)F)cc1)CC[C@H]1C(C)(C)C(=O)C=C[C@]21C`, the IC50 in [2] was 4090 nM; in [1], 4560 nM; in data set [7], 5670 nM; in [8] it was 17100 nM. Moreover, the inhibition entry in data set [3] is “inactive”. Besides, the selectivity ratio in data set [4], in data set [5] and in data set [6] was 3 to 3.8 in each case.

As for `COC(=O)[C@]12CCC(C)(C)C[C@H]1[C@H]1C(=O)C=C3[C@@]4(C)C=C(C#N)C(=O)C(C)(C)[C@@H]4CC[C@@]3(C)[C@]1(C)CC2` [BARDOXOLONE METHYL], the IC50 in [2] was 280 nM; in [1], 250 nM; in [7], 290 nM; in [8] it was 2100 nM. The inhibition entry in data set [3] was “Active”. The selectivity ratio in data set [4], in data set [5] and in data set [6] was 7.2 to 8.4 in each case.

In [1], `COC(=O)c1ccc(NC(=O)c2cc3c(cc2OC)[C@@]2(C)C=C(C#N)C(=O)C(C)(C)[C@@H]2CC3)cc1` returned an IC50 of 690 nM. This lies in the sub-micromolar range.

As for `COc1cc2c(cc1C(=O)Nc1ccccc1)CC[C@H]1C(C)(C)C(=O)C(C#N)=C[C@]21C`, the midpoint of inhibition in data set [1], the IC50, lay at 760 nM.

For the molecule `COc1cc2c(cc1C(=O)NNc1ccc(OC(F)(F)F)cc1)CC[C@H]1C(C)(C)C(=O)C(C#N)=C[C@]21C`, the concentration for half-maximal inhibition (IC50) was determined as 1620 nM in data set [2], 900 nM in data set [1], 1310 nM in data set [7] and 4550 nM in [8]. The selectivity ratio in data set [4], in data set [5] and in data set [6] was 2.8 to 5 throughout.

Turning to `COc1cc2c(cc1C(=O)Nc1cccc(OC(F)(F)F)c1)CC[C@H]1C(C)(C)C(=O)C(C#N)=C[C@]21C`, the IC50 in data set [2] was 560 nM; in data set [1], 430 nM; in data set [7] it was 580 nM; in [8], 3570 nM. The selectivity ratio in data set [4], in data set [5] and in [6] was 6.2 to 8.3 throughout.

In the case of `COc1cc2c(cc1C(=O)NCc1ccc(OC(F)(F)F)cc1)CC[C@H]1C(C)(C)C(=O)C(C#N)=C[C@]21C`, the IC50 turned out to be 1370 nM in data set [2], 1040 nM in data set [1], 1600 nM in data set [7] and 5190 nM in data set [8]. The selectivity ratio in data set [4], in data set [5] and in data set [6] was 3.2 to 5 throughout.

Regarding `COc1cc2c(cc1C(=O)Nc1ccc(OC(F)(F)F)cc1)CC[C@H]1C(C)(C)C(=O)C(C#N)=C[C@]21C`, the “Ratio IC50” value in data set [9] was found to be 2. The 50% inhibitory concentration (IC50) was determined as 540 nM in data set [2], 300 nM in [1], 600 nM in [7] and 3220 nM in [8]. Besides, the selectivity ratio in data set [4], in data set [5] and in data set [6] was 5.4 to 10.7 each time.

In the case of `COc1cc2c(cc1C(=O)Nc1ccc(C(N)=O)cc1)CC[C@H]1C(C)(C)C(=O)C(C#N)=C[C@]21C`, the half-maximal inhibitory concentration (IC50) in data set [1] turned out to be 850 nM.

In [1], `COc1cc2c(cc1C(=O)Nc1ccc(Br)cc1)CC[C@H]1C(C)(C)C(=O)C(C#N)=C[C@]21C` registered an IC50 of 530 nM.

For the molecule `COc1cc2c(cc1C(=O)Oc1ccccc1)CC[C@H]1C(C)(C)C(=O)C(C#N)=C[C@]21C`, in data set [1], the midpoint of inhibition, the IC50, lay at 1310 nM.

In data set [1], `COc1cc2c(cc1C(=O)Nc1ccc(C#N)cc1)CC[C@H]1C(C)(C)C(=O)C(C#N)=C[C@]21C` returned a half-inhibitory concentration (IC50) of 570 nM.

The molecule `COc1cc2c(cc1C(=O)Nc1ccc(Cl)cc1)CC[C@H]1C(C)(C)C(=O)C(C#N)=C[C@]21C` showed an IC50 in data set [1] of 670 nM.

Consider `CNC(=O)c1cc2c(cc1OC)[C@@]1(C)C=C(C#N)C(=O)C(C)(C)[C@@H]1CC2`, for which the IC50 in [1] is 8540 nM.

For the molecule `COc1cc2c(cc1C(=O)Nc1ccc(N)cc1)CC[C@H]1C(C)(C)C(=O)C(C#N)=C[C@]21C`, the IC50 in data set [1] came out at 750 nM.

In the case of `COc1cc2c(cc1C(=O)Nc1ccc(C(F)(F)F)cc1)CC[C@H]1C(C)(C)C(=O)C(C#N)=C[C@]21C`, the IC50 in [1] was determined as 320 nM.
